Laboratory results reported in article PMC6382874, “Succinylation-dependent mitochondrial translocation of PKM2 promotes cell survival in response to nutritional stress” (Cell Death & Disease, 2019).

Columns and labels:
PKM2 = PKM2 (Homo sapiens, UniProt P14618); assay: fluorescent pyruvate kinase-lactate dehydrogenase (PK-LDH) coupled assay, PKM2; assay type: biochemical; design: His-tag (N); made in house; host or cells: Escherichia coli BL21; conditions: for selectivity for PKM2 over PKM1 and PKL: Supplementary Figure S4c
Experimental: A random screening of an in-house small molecule library (~1000 total molecules) was undertaken to identify new PKM2 modulators, which can block the interaction of PKM2 and VDAC3. The activity of these test compounds was assessed with a fluorescent PK-LDH coupled assay by a previously reported method (Supplementary Figure S4a)[37]. […] We undertook structural optimization by chemical modification. We designed new compounds utilizing a methyl group instead of the NP-1 chlorine moiety. Synthesis of target compounds was carried out according to the six-step protocol outlined in Supplementary Figure S4d, which was based on a previously described procedure[39],[40].
Human cDNA for PKM2, PKM1, and VDAC3 were separately cloned into a pET28a (+) and pGEX-4T-1 vector with an N-terminal His-tag and N-terminal GST-tag and purified from the Escherichia coli strain BL21 (Invitrogen) using Ni–agarose beads and GST agarose beads (Qiagen) as described previously. PKL was purchased from Sino Biological Inc. in China.
Pyruvate kinase activity was measured with a fluorescent pyruvate kinase–lactate dehydrogenase coupled assay as described previously. All compounds were tested in a kinetic mode by coupling the generation of pyruvate by pyruvate kinase to the depletion of NADH through lactate dehydrogenase. For PKM2, 40 μL of buffer (50 mM Tris–HCl, pH 7.5, 10 mM KCl, 5 mM MgCl2), 1 μL of compound and 5 μL of enzyme solution were dispensed into Corning black solid 96-well plates and incubated for 15 min. Totally, 55 μL of substrate mix (final concentration, 0.5 mM PEP, 4.0 mM ADP, 0.12 mM NADH, 0.25 mM FBP, and 1 unit LDH) were then added, and the plates were placed in a FlexStation3 (Molecular Devices), followed by determination of NADH fluorescence at 30 s exposure intervals for 3–6 min. Data were collected on a FlexStation3.

[1] = system: outer mitochondrial membrane permeability; assay: NADH oxidation assay in mitochondria isolated from HCT116 cells; assay type: cell-based, human; conditions: 20 µM, 8 h
Experimental: (§1) Fig. 6 Compound 8 blocks PKM2 mitochondrial translocation under nutritional stress and inhibits tumor growth in vivo. a Compound 8 blocks glucose starvation induced PKM2 mitochondrial translocation. Isolation of mitochondria and immunoblot of PKM2, tubulin and Tom 40 were carried out with or without compound 8 treatment. b Compound 8 disrupts interaction of PKM2 and VDAC3. HCT116 cells were transfected with HA-tagged PKM2, cells were harvested and subjected to stag pull down after 8 h 20 µM compound 8 treatment. c Compound 8 induces VDAC3 for degradation. cells were harvested and evaluated VDAC3 protein levels after 8 h 10 or 20 µM compound 8 treatment. d, e Compound 8 caused a decrease in the rate of NADH oxidation. After 8 h of treatment with 20 µM compound 8, HCT116 cells mitochondria were isolated for NADH oxidation assays. NAD/NADH ratios in HCT116 cell lysates were evaluated by LC–MS. f Compound 8 inhibited ATP production in HCT116 cells. g The tumor volume (n = 7) of HCT116 xenografts from mice with intraperitoneal injection of compound 8 and vehicle control […]
NADH oxidation in the mitochondria was measured by resuspending mitochondria isolated from HCT116 cells after knockdown or overexpression of PKM2, K433E, K433R, PKM1, or treatment with 20 μM compound 8 for 8 h in 25 mM NADH. Absorbance was monitored at λ = 340 nm. […]

VDAC3 = VDAC3 protein level (western blot) in HCT116 cells; assay type: cell-based, human; conditions: 10 or 20 µM, 8 h
Excerpt: HCT116 cell lysates were subject to immunoprecipitation with control IgG and anti-VDAC3 antibodies. d, e In vitro binding assay of purified His-tagged-PKM2 and GST-tagged-VDAC3. f K433E enhanced the interaction of PKM2 and VDAC3. Stagged-WT PKM2, a succinylation mimic K433E and a succinylation null mutant K433R and flag-VDAC3 were co-transfected into HCT116 cells for Stag bead pull down that specially pulls down Stagged proteins. g Glucose starvation enhanced the interaction of PKM2 and VDAC3. […]
as §1, with “Isolation of mitochondria and immunoblot of PKM2, tubulin and Tom 40 were carried out with or without compound 8 treatment. b Compound 8 disrupts interaction of PKM2 and VDAC3.” left out, “After 8 h of treatment with 20 µM compound 8, HCT116 cells mitochondria were isolated for NADH oxidation assays.” left out

Sequence of PKM2 (P14618 whole entry): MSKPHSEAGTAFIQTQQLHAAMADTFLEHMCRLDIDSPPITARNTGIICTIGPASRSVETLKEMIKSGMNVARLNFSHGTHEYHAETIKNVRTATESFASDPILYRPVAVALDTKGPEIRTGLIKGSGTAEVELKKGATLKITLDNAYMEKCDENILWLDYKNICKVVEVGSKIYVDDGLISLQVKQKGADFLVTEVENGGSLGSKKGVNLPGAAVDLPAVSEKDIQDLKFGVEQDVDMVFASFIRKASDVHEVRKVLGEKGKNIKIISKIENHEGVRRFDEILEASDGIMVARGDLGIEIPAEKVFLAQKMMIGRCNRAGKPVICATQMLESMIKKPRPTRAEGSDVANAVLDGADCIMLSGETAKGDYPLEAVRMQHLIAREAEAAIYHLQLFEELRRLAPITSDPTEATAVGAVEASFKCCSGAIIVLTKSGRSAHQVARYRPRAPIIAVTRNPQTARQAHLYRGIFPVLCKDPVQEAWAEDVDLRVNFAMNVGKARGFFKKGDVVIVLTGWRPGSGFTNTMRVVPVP

CCCN(CCC)P(N)(=O)OCC1=CC(=O)c2ccccc2C1=O (stereo not drawn) [Compound 8]
selectivity for PKM2 over PKM1 and PKL (PKM2): markedly inhibited PKM2, but inhibited PKM1 and PKL to much smaller extent | selectivity for PKM2 over PKM1 and PKL (PKM2; listed as compound 8): PKM2 inhibitor of high selectivity | IC50 on PKM2 relative to NP-1 (PKM2; ratio of IC50 values of Table 1): about threefold lower than that of NP-1 | IC50 (PKM2; recombinant enzyme, PK-LDH coupled assay, 15 min preincubation, read-out: IC50 (PKM2)): 770 ± 300 nM | rate of NADH oxidation in purified mitochondria [1]: reduced | VDAC3 protein level (VDAC3): caused VDAC3 degradation
